Reference: article PMC5315062 (Oncology and Therapy, 2016)
Entries after “also recorded” stand apart in the source; their conditions may differ.

Experiments:
[1] = Single- versus multi-dose; settings: rat
[2] = Tissue distribution in rats after i.g. 15.0 mg/kg; type: in vivo, Sprague–Dawley rats; settings: for exposure in lung and thyroid: rat, 3, 9, 24 h
[3] = Toxicity and mortality after repeated intragastric administration in rats; type: in vivo
[4] = Single-dose pharmacokinetics of ponatinib in rats; type: in vivo, Sprague–Dawley rats; settings: rat; for half-life: T 1/2, rat; for Tmax: T max
[5] = in vitro; large decrease in solubility with increasing pH; cited from earlier work
[6] = test system: BCR–ABL1; settings: cited from earlier work
[7] = healthy subjects, meal within 30 min prior to single oral administration; cited from earlier work
[8] = Stability of ponatinib in rat bio-samples under different storage conditions; type: in vitro ADME; settings: rat plasma, urine, feces; all RE (%) and RSD (%) below 15%
[9] = both, Sprague-Dawley, in vivo, po, 3.75 mg/kg
[10] = i.g. 3.75 mg/kg once a day for 7 days (multi-dose)
[11] = both, Sprague-Dawley, plasma, iv, 3 mg/kg
[12] = both, Sprague-Dawley, plasma, po, 7.5 mg/kg
[13] = both, Sprague-Dawley, plasma, po, 7.5 mg/kg, i.g. 7.5 mg/kg
[14] = both, Sprague-Dawley, plasma, po, 15 mg/kg
[15] = both, Sprague-Dawley, plasma, po, 15 mg/kg, i.g. 15.0 mg/kg
[16] = both, Sprague-Dawley, plasma, po, 30 mg/kg
[17] = both, Sprague-Dawley, plasma, po, 30 mg/kg, i.g. 30.0 mg/kg

Cc1ccc(C(=O)Nc2ccc(CN3CCN(C)CC3)c(C(F)(F)F)c2)cc1C#Cc1cnc2cccnn12 [ponatinib, Ponatinib]
Cmax [1, 9]: 129 ± 37.6 ng/mL
Cmax at 7 days [1, 9]: 189 ± 55.7 ng/mL
Tmax [1, 9]: 10 ± 2.19 h
Tmax at 7 days [1, 9]: 6.67 ± 3.01 h
half-life [1, 9]: 11.3 ± 1.46 h
half-life at 7 days [1, 9]: 10.9 ± 1.56 h
CL [1, 10]: 11.7 ± 1.83 mL/min/kg
V [1, 10]: 10.85 ± 1.49 L/kg
CL ([1]; i.g. 3.75 mg/kg, single dose): 29.8 ± 10.2 mL/min/kg
V ([1]; i.g. 3.75 mg/kg, single dose): 28.91 ± 9.47 L/kg
distribution into tissues of the body ([2]; rat): distributed widely; also recorded: widely distributed
level in stomach, intestine and liver ([2]; rat): fairly low
exposure in lung and thyroid [2]: highly exposed; also recorded: highest levels
exposure in lung and thyroid ([2]; listed as Ponatinib): highest exposure
toxicity ([3]; 3.75 mg/kg consecutive administration for 7 days): Toxicity was displayed to some extent
mortality ([3]; repeated intragastric administration over 6 mg/kg): increased; also recorded: high mortality
AUC(0-inf) [4, 11]: 2180 ± 462 ng·h/mL
MRT [4, 11]: 9.77 ± 0.66 h
clearance [4, 11]: 23.8 mL/min/kg
concentration at 5 min [4, 11]: 281 ± 129 ng/mL
half-life ([4]; both, Sprague-Dawley, plasma, iv, 3 mg/kg, i.v. 3.0 mg/kg): 6.17 ± 0.95 h
AUC(0-inf) [4, 12]: 1910 ± 353 ng·h/mL
Cmax [4, 12]: 104 ± 23.4 ng/mL
MRT [4, 12]: 16.4 ± 1.25 h
half-life [4, 13]: 10.9 ± 1.06 h
Tmax [4, 13]: 8.4 ± 2.19 h
AUC(0-inf) [4, 14]: 5030 ± 1010 ng·h/mL
Cmax [4, 14]: 285 ± 69 ng/mL
MRT [4, 14]: 16.7 ± 2.74 h
half-life [4, 15]: 9.7 ± 1.43 h
Tmax [4, 15]: 8.33 ± 0.82 h
AUC(0-inf) [4, 16]: 11600 ± 2890 ng·h/mL
Cmax [4, 16]: 638 ± 107 ng/mL
MRT [4, 16]: 16.5 ± 2.36 h
half-life [4, 17]: 9.66 ± 0.81 h
Tmax [4, 17]: 7.67 ± 0.82 h
CL ([4]; i.g. 7.5 mg/kg): 67 ± 11.3 mL/min/kg
V ([4]; i.g. 7.5 mg/kg): 63.55 ± 14.02 L/kg
CL ([4]; i.g. 15.0 mg/kg): 51.2 ± 9.33 mL/min/kg
V ([4]; i.g. 15.0 mg/kg): 42.85 ± 5.01 L/kg
CL ([4]; i.g. 30.0 mg/kg): 45.3 ± 12.7 mL/min/kg
V ([4]; i.g. 30.0 mg/kg): 37.78 ± 9.26 L/kg
exposure in plasma in relation to dose ([4]; i.g. 7.5, 15.0, 30.0 mg/kg): dose-dependent exposure
V ([4]; i.v. 3.0 mg/kg): 12.93 ± 4.37 L/kg
aqueous solubility [5]: pH-dependent
concentration at which BCR–ABL1 is inhibited [6]: above 40 nmol/L
effect of a high- or low-fat meal on single-dose pharmacokinetics [7]: no effect
stability under various storage conditions [8]: stable
